Laboratory results published in patent publication US6818663B2, “Diaminothiazoles” (Hoffmann-La Roches, priority 2002, dated 2004).
pIC50: −log10 of the molar value.

How the values were obtained:
human cyclin E-CDK2 = human cyclin E-CDK2 (Homo sapiens, UniProt P24941); experiment: FlashPlate kinase assay, cyclin E-CDK2, Rb substrate; format: biochemical; conditions: recombinant cyclin E-CDK2, Rb phosphorylation, 1 μM ATP
Outline: (§1)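 Recombinant human cyclin–CDK complexes, co-expressed in insect cells, phosphorylated His-tagged Rb (aa 386-928) coated on FlashPlates at 10 μg/ml. Reaction used 1 μM ATP plus 4 nM ^33P-ATP and 20 mM MgCl2 for 30 min at room temperature. % inhibition came from scintillation counts against no-enzyme and no-compound wells, and IC50 was the concentration halving radiolabel incorporation.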

human cyclin D1-CDK4 = human cyclin D1-CDK4 (Homo sapiens, UniProt P11802); experiment: FlashPlate kinase assay, cyclin D1-CDK4, Rb substrate; format: biochemical; conditions: recombinant cyclin D1-CDK4, Rb phosphorylation, 1 μM ATP
Sequence of human cyclin D1-CDK4 (P11802 whole entry): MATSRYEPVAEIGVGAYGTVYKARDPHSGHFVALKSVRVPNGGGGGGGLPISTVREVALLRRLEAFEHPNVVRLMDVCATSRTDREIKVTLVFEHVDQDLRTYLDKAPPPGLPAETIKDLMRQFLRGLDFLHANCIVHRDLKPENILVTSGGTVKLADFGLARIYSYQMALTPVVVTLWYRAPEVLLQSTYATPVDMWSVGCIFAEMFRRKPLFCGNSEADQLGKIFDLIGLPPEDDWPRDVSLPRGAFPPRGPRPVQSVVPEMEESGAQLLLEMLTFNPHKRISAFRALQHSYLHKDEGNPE
Sequence of human cyclin D1-CDK4 (P24385 whole entry partner): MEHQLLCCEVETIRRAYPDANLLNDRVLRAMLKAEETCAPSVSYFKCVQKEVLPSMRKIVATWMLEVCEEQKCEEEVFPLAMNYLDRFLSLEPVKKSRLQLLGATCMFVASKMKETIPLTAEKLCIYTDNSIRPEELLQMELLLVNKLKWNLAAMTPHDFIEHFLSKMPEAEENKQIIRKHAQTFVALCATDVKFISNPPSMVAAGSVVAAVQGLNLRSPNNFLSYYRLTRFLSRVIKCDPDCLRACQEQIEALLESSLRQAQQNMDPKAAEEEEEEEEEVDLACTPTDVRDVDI
Outline: as §1

[1] = system: HCT116, a colorectal carcinoma cell line; experiment: Tetrazolium dye proliferation assay (MTT assay); format: cell-based; conditions: Homo sapiens, HCT-116, HCT116 cells, inhibition of cell proliferation
Experimental: Proliferation was evaluated by the tetrazolium dye assay according to the procedure of Denizot and Lang (Denizot, F. and Lang, R. J Immunol Methods 1986, 89, 271-277). The cell line used was HCT116, a colorectal carcinoma cell line obtained from the American Type Cell Culture Collection (ATCC; Rockville, Md.). The cells were grown in McCoy's 5A medium supplemented with 10% FCS and L-glutamine.
Cells were plated at the appropriate seeding density to give logarithmic growth over the course of the assay in a 96-well tissue culture plate. Plates were incubated overnight at 37° C. in a humidified incubator with 5% CO2. The next day, test compounds were serially diluted to four times the final concentration in the appropriate medium containing 1.2% DMSO. One-fourth final volume of each dilution was added in duplicate to the plates containing cells. The same volume of 1.2% DMSO in medium was added to a row of “control wells” such that the final concentration of DMSO in each well was 0.3%. Wells to which no cells were added served as the “blank.” Wells to which no inhibitor was added served as “no inhibitor control.” The plates were) returned to the incubator, and at set time points (determined by their growth curves) plates were analyzed as described below.
3-(4,5-dimethylthiazole-2-yl)-2,5-diphenyl-2H-tetrazolium bromide (thiazolyl blue; MTT; Sigma) was added to each well to yield a final concentration of 1 mg/ml. Plates were returned to the incubator for 2.5-3 hours at 37° C. The MTT-containing medium was removed and the resulting formazan metabolite was solubilized in 100% ethanol with shaking for 15 minutes at room temperature. Absorbance readings were taken in a microtiter plate reader (Dynatech and Molecular Devices plate readers were used interchangeably) at a wavelength of 570 nm with a 650 nm reference. Percent inhibition (% INH) is calculated by subtracting the absorbance of the blank well from all wells, then subtracting the ratio of the average absorbance of each test duplicate (SAVE) by the average of the controls (CAVE) from 1.00. The final number is then multiplied by 100 (% INH=(1.00−SAVE/CAVE)×100). The concentration at which 50% inhibition of cell proliferation is obtained (the IC50) is determined from the linear regression of a plot of the logarithm of the concentration versus percent inhibition.

human cyclin B-CDK1 = human cyclin B-CDK1 (Homo sapiens, UniProt P06493); experiment: FlashPlate kinase assay, cyclin B-CDK1, Rb substrate; format: biochemical; conditions: recombinant cyclin B-CDK1, Rb phosphorylation, 1 μM ATP
Sequence of human cyclin B-CDK1 (P06493 whole entry): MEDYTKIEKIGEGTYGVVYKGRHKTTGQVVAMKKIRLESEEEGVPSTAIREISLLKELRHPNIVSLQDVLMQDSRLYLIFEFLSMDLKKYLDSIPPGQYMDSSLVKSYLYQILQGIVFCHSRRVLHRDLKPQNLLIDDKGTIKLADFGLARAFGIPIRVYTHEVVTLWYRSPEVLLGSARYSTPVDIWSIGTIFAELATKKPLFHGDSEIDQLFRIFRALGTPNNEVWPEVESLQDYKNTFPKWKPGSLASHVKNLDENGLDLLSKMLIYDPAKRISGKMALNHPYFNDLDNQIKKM
Sequence of human cyclin B-CDK1 (P14635 whole entry partner): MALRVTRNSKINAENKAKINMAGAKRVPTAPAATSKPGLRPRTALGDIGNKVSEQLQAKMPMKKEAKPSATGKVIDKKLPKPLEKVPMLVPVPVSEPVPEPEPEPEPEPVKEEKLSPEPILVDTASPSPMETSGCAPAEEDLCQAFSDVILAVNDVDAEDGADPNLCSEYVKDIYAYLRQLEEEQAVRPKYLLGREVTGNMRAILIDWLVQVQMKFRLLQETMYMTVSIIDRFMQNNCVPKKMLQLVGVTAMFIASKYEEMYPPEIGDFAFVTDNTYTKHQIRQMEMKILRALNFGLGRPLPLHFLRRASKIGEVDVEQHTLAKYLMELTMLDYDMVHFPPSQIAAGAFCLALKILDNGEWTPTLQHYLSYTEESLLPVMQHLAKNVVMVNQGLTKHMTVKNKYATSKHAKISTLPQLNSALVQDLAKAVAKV
Outline: as §1

| SMILES | pIC50 (human cyclin E-CDK2) | pIC50 (human cyclin D1-CDK4) | pIC50 [1] | pIC50 (human cyclin B-CDK1) |
| --- | --- | --- | --- | --- |
| C[C@H](COc1ccc(Nc2nc(N)c(C(=O)c3cccc(C4CC4)c3)s2)cc1)N1CCCC1 [Example 68, (R)-[4-Amino-2-[4-(2-pyrrolidin-1-yl-propoxy)-phenylamino]-thiazol-5-yl]-(3-cyclopropyl-phenyl)-methanone] | 5.34 | 7.29 | 5.92 | 5.68 |
| CN(C)CCOc1ccc(Nc2nc(N)c(C(=O)c3cccc(C4CC4)c3)s2)cc1 [Example 69, [4-Amino-2-[4-(2-dimethylamino-ethoxy)-phenylamino]-thiazol-5-yl]-(3-cyclopropyl-phenyl)-methanone] | 5.54 | 7.40 | 5.98 | 5.75 |
| C[C@H](COc1ccc(Nc2nc(N)c(C(=O)c3cccc(C4CC4)c3)s2)cc1)N(C)C [Example 70, (R)-[4-Amino-2-[4-(2-dimethylamino-propoxy)-phenylamino]-thiazol-5-yl]-(3-cyclopropyl-phenyl)-methanone] | 5.50 | 7.42 | 5.71 | 5.53 |
| CN(C)C(C)(C)COc1ccc(Nc2nc(N)c(C(=O)c3cccc(C4CC4)c3)s2)cc1 [Example 71, [4-Amino-2-[4-(2-dimethylamino-2-methyl-propoxy)-phenylamino]-thiazol-5-yl]-(3-cyclopropyl-phenyl)-methanone] | 5.68 | 7.41 | 5.63 | 5.41 |
| Nc1nc(Nc2ccc(OCCN3CCCC3)cc2)sc1C(=O)c1cccc(C2CC2)c1 [Example 72, [4-Amino-2-[4-(2-pyrrolidin-1-yl-ethoxy)-phenylamino]-thiazol-5-yl]-(3-cyclopropyl-phenyl)-methanone] | 5.93 | 7.43 | 5.86 | 5.70 |
| CCN1CCCC(Oc2ccc(Nc3nc(N)c(C(=O)c4cccc(C)c4)s3)cc2)C1 (stereo not shown) [Example 78, [4-Amino-2-[4-(1-ethyl-piperidin-3-yloxy)-phenylamino]-thiazol-5-yl]-m-tolyl-methanone] | 5.96 | 7.39 | 5.82 | 6.09 |
| CCc1cccc(C(=O)c2sc(Nc3ccc(OC4CCCN(CC)C4)cc3)nc2N)c1 (stereo not shown) [Example 79, [4-Amino-2-[4-(1-ethyl-piperidin-3-yloxy)-phenylamino]-thiazol-5-yl]-(3-ethyl-phenyl)-methanone] | 5.93 | 7.64 | 5.83 | 5.97 |
| CCN1CCCC(Oc2ccc(Nc3nc(N)c(C(=O)c4cccc(C5CC5)c4)s3)cc2)C1 (stereo not shown) [Example 80, [4-Amino-2-[4-(1-ethyl-piperidin-3-yloxy)-phenylamino]-thiazol-5-yl]-(3-cyclopropyl-phenyl)-methanone] | 5.64 | 7.72 | 5.76 | 5.73 |
| CCN1CCC(Oc2ccc(Nc3nc(N)c(C(=O)c4cccc(C)c4)s3)cc2)C1 (stereo not shown) [Example 83, [4-Amino-2-[4-(1-ethyl-pyrrolidin-3-yloxy)-phenylamino]-thiazol-5-yl]-m-tolyl-methanone] | 6.30 | 7.31 | 5.81 | 6.01 |
| CCc1cccc(C(=O)c2sc(Nc3ccc(OC4CCN(CC)C4)cc3)nc2N)c1 (stereo not shown) [Example 84, [4-Amino-2-[4-(1-ethyl-pyrrolidin-3-yloxy)-phenylamino]-thiazol-5-yl]-(3-ethyl-phenyl)-methanone] | 6.56 | 7.34 | 5.82 | 6.18 |
| CCN1CCC(Oc2ccc(Nc3nc(N)c(C(=O)c4cccc(C5CC5)c4)s3)cc2)C1 (stereo not shown) [Example 85, [4-Amino-2-[4-(1-ethyl-pyrrolidin-3-yloxy)-phenylamino]-thiazol-5-yl]-(3-cyclopropyl-phenyl)-methanone] | 6.05 | 7.29 | 5.70 | 5.97 |
| CCCc1cc(C(=O)c2sc(Nc3ccc(OC4CCCN(CC)C4)cc3)nc2N)ccc1O (stereo not shown) [Example 88, [4-Amino-2-[4-(1-ethyl-piperidin-3-yloxy)-phenylamino]-thiazol-5-yl]-(4-hydroxy-3-propyl-phenyl)-methanone; Compound With Acetic Acid] | 6.63 | 7.41 | 6.55 | 6.62 |
| CCCc1cc(C(=O)c2sc(Nc3ccc(OC4CCN(CC)C4)cc3)nc2N)ccc1O (stereo not shown) [Example 89, [4-Amino-2-[4-(1-ethyl-pyrrolidin-3-yloxy)-phenylamino]-thiazol-5-yl]-(4-hydroxy-3-propyl-phenyl)-methanone; Compound With Acetic Acid] | 6.76 | 7.72 | 6.49 | 6.58 |
| CCc1cccc(C(=O)c2sc(Nc3ccc(OC4CCNC4)cc3)nc2N)c1 (stereo not shown) [Example 92, [4-Amino-2-[4-(pyrrolidin-3-yloxy)-phenylamino]-thiazol-5-yl)-(3-ethyl-phenyl)-methanone; Compound With Acetic Acid] | 6.31 | 7.29 | 5.80 | 6.27 |
| Nc1nc(Nc2ccc(OC3CCNC3)cc2)sc1C(=O)c1cccc(C2CC2)c1 (stereo not shown) [Example 93, [4-Amino-2-[4-(pyrrolidin-3-yloxy)-phenylamino]-thiazol-5-yl]-(3-cyclopropyl-phenyl)-methanone; Compound With Acetic Acid] | 5.92 | 7.38 | 5.69 | 6.07 |
| COc1ccc(C(=O)c2sc(Nc3ccc(OC4CCNC4)cc3)nc2N)cc1F (stereo not shown) [Example 96, [4-Amino-2-[4-(pyrrolidin-3-yloxy)-phenylamino]-thiazol-5-yl]-(3-fluoro-4-methoxy-phenyl)-methanone] | 5.84 | 7.41 | 5.48 | 6.18 |
| CCNCCOc1ccc(Nc2nc(N)c(C(=O)c3cccc(C)c3)s2)cc1 [Example 100, [4-Amino-2-(4-(2-ethylamino-ethoxy)-phenylamino]-thiazol-5-yl]-m-tolyl-methanone; Compound With Acetic Acid] | 5.91 | 7.37 | 6.06 | 6.14 |
| CCNCCOc1ccc(Nc2nc(N)c(C(=O)c3cccc(CC)c3)s2)cc1 [Example 101, [4-Amino-2-[4-(2-ethylamino-ethoxy)-phenylamino]-thiazol-5-yl]-(3-ethyl-phenyl)-methanone; Compound With Acetic Acid] | 5.95 | 7.68 | 6.16 | 6.18 |
| CCNCCOc1ccc(Nc2nc(N)c(C(=O)c3cccc(C4CC4)c3)s2)cc1 [Example 102, [4-Amino-2-[4-(2-ethylamino-ethoxy)-phenylamino]-thiazol-5-yl]-(3-cyclopropyl-phenyl)-methanone; Compound With Acetic Acid] | 5.77 | 7.59 | 6.13 | 6.05 |
| CCNCCOc1ccc(Nc2nc(N)c(C(=O)c3ccc(C)c(F)c3)s2)cc1 [Example 103, [4-Amino-2-[4-(2-ethylamino-ethoxy)-phenylamino]-thiazol-5-yl]-(3-fluoro-4-methyl-phenyl)-methanone; Compound With Acetic Acid] | 5.75 | 7.39 | 5.84 | 6.36 |
| CCNCCOc1ccc(Nc2nc(N)c(C(=O)c3ccc(F)c(CC)c3)s2)cc1 [Example 104, [4-Amino-2-[4-(2-ethylamino-ethoxy)-phenylamino]-thiazol-5-yl]-(3-ethyl-4-fluoro-phenyl)-methanone; Compound With Acetic Acid] | 5.48 | 7.28 | 5.61 | 5.45 |
| CCCc1cc(C(=O)c2sc(Nc3ccc(OCCNCC)cc3)nc2N)ccc1O [Example 105, [4-Amino-2-[4-(2-ethylamino-ethoxy)-phenylamino]-thiazol-5-yl]-(4-hydroxy-3-propyl-phenyl)-methanone; Compound With Acetic Acid] | 6.75 | 7.74 | 6.41 | 6.95 |
